Data on eight compounds can be found in article PMC9241057, “Ru(II)arene(N^N bpy/phen)-based RAPTA complexes for in vitro anti-tumour activity in human glioblastoma cancer cell lines and in vivo toxicity studies in a zebrafish model” (RSC Advances, 2022).

The test system of one series is LN229. As to the kind of experiment: MTT cytotoxicity assay, LN229. In kind it is cell-based, human. The note with it: 72 h incubation. On the procedure: (§1) The cytotoxic activity of prepared RAPTA complexes (4a–4h) was evaluated by following the standard procedure of the MTT experiment against a series of glioblastoma cells (LN 229, T98, U87MG) in triplicate. In order to accomplish this study, cells were maintained for 72 h with complexes of various concentrations ranging from 2–160 μM, taking cisplatin as a typical positive control.[22]
(§2) RAPTA complexes were dissolved in 1% DMSO, and 0.9% NaCl aqueous solution was used to dissolve cisplatin. A cell suspension was prepared and the number of cells taken was 2.5 × 10^4 mL^−1. The cells were seeded in 96-well plates (200 μL per well) and allowed 80% confluence prior to treatment. The cells were formerly treated with various concentrations (2.5–160 μM) of complex 4a–h while the control group was treated with PBS […]. After the 72 hours of incubation, 0.5% MTT solution was added to each well (20 μL) and further incubated for 4 hours at […]. The formazan crystals that were formed were dissolved in 150 μL DMSO and then the OD was measured by a microplate reader at 540 nm. The % growth inhibition of the control and treated cells were calculated and represented as the growth inhibition percentage as explained below.% growth inhibition = 100 − [(AD × 100)/AB]where AD is the absorbance measured in wells containing the treated and control samples and AB is the measured absorbance for the wells with media and a vehicle that served as the blank. IC50 was calculated using Graphpad Prism (version 6.0) where % cell viability was plotted against drug concentration.
For orientation: Tetrazolium assays rely on reduction of a dye to a coloured formazan, in cell work by metabolically active cells.

In another series the test system is T98. Kind of series: MTT cytotoxicity assay, T98. The note with it: 72 h incubation. In kind it is cell-based, human. How it is done:
as §1, §2

The test system of the next series is U87MG. Kind of series: MTT cytotoxicity assay, U87MG. The note with it: 72 h incubation. Type of series: cell-based, human. How it is done: as §1, §2
A short description of series [1]: n-Octanol/water partition coefficient, shake-flask method.
Experimental: n-Octanol–water partition coefficient (log P o/w)8
Using the previously reported shake flask approach, the log Po/w of the RAPTA complexes
amount of each complexes in water (pre-saturated with n-octanol). The solution was
centrifuged at 3000 rpm for 10 minutes to allow phase separation. Different ratios (0.5:1, 1:1,
and 2:1) of saturated solutions were shaken for 20 minutes on an orbital shaker with pre-
and octanol layers were measured with a UV-Vis spectrophotometer after adequate dilution.
The concentrations of the complexes in each layer were estimated using the corresponding
molar extinction coefficients, and the partition coefficient (log Po/w) values were computed
The nature of a further series: Conductivity measurement. Type of series: physicochemical. The note with it: 3 x 10^-5 M; for Conductivity (ΛM) 10% aq DMSO: in 10% aq DMSO; for Conductivity (ΛM) DMSO: in DMSO. The source says: concentrations gradually.
Origin Lab, version 8.5 was
equation (v) given below: […]
Conductivity measurement 7
complexes with DMSO and aqueous DMSO.
followed the previously described procedure. An orbital shaker was used to shake a known
Different ratios (0.5:1, 1:1,
saturated n-octanol to get the partition coefficient. The absorbance of aliquots of the aqueous

The nature of a further series: Solubility. The note with it: DMSO-10% DMEM medium (1:99 v/v, comparable to cell media).
Another series deals with Ct-DNA. The note with it: comparison value, no reference given; cited from earlier work.
For the next series, the system named is EtBr-bound DNA (Ct-DNA). Also noted: method as in PMID 34612310. The note with it: from literature ref 20; cited from earlier work.

A word on the IC50: it is the concentration needed to halve the response being measured. Low readings indicate inhibition by little substance, high ones a need for much substance. In the case of `C1N2CN3CN1CP(C2)C3.Cc1ccc(C(C)C)cc1.F[P-](F)(F)(F)(F)F.F[P-](F)(F)(F)(F)F.[Ru+2].c1ccc(-c2ccccn2)nc1` [4e, [(η^6-p-Cymene)Ru^II(κ^2-N,N-bipyridine)(PTA)]·2PF6], the concentration for half-maximal inhibition (IC50) with LN229 is 1890 ± 60 nM; in the series with T98, 1990 ± 40 nM; in the series with U87MG it was 1750 ± 30 nM. For the same compound, the “log P (partition coefficient in n-octanol/water)” value in series [1] was 1.4±0.08.

On to `C1N2CN3CN1CP(C2)C3.CCCCCCCCCc1ccnc(-c2cc(CCCCCCCCC)ccn2)c1.Cc1ccc(C(C)C)cc1.F[P-](F)(F)(F)(F)F.F[P-](F)(F)(F)(F)F.[Ru+2]` [4h, [(η^6-p-Cymene)Ru^II(κ^2-N,N-4,4′ dinonylbipyridine)(PTA)]·2PF6], for which the figures for the IC50 with LN229, with T98 and with U87MG were 1640 ± 30 nM, 1470 ± 30 nM and 1460 ± 30 nM, respectively. In “Conductivity measurement”, the “Conductivity (ΛM) 10% aq DMSO” value was 77 S cm2 mol-1. The “Conductivity (ΛM) DMSO” value in the series “Conductivity measurement” turned out to be 71 S cm2 mol-1.

Broadly, the solubility is how much of the substance goes into solution per volume. Higher therefore signals a readily soluble substance. For the compound `C1N2CN3CN1CP(C2)C3.Cc1ccc(C(C)C)cc1.F[P-](F)(F)(F)(F)F.F[P-](F)(F)(F)(F)F.O=C(O)c1ccnc(-c2cc(C(=O)O)ccn2)c1.[Ru+2]` [4f, [(η^6-p-Cymene)Ru^II(κ^2-N,N-4,4′ dicarboxylic acid bipyridine)(PTA)]·2PF6], the 50% inhibitory concentration (IC50) in the series with LN229 was found to be 1790 ± 20 nM; with T98, 2120 ± 30 nM; in the series on U87MG, 1570 ± 20 nM. Further, the “Conductivity (ΛM) 10% aq DMSO” value in the series “Conductivity measurement” came to 77 S cm2 mol-1. Moreover, in “Conductivity measurement”, the “Conductivity (ΛM) DMSO” value came out at 75 S cm2 mol-1. Further, the solubility in “Solubility” is 17 mM. In series [1], the “log P (partition coefficient in n-octanol/water)” value is 0.33±0.03.

As for `CC[n+]1c(-c2ccccc2)c2cc(N)ccc2c2ccc(N)cc21` [EtBr, ethidium bromide], the “KEtBr, DNA binding constant of the typical intercalator” value with Ct-DNA is 700000 M⁻¹. The “KEtBr, EtBr binding constant” value in the series on EtBr-bound DNA (Ct-DNA) was 1e+07 M⁻¹.

`C1N2CN3CN1CP(C2)C3.Cc1ccc(C(C)C)cc1.F[P-](F)(F)(F)(F)F.F[P-](F)(F)(F)(F)F.Oc1ccnc2c1ccc1c(O)ccnc12.[Ru+2]` [4a, [(η^6-p-Cymene)Ru^II(κ^2-N,N-4,7dihydroxyphenanthroline)(PTA)]·2PF6]: the IC50 in the series with LN229 worked out at 1800 ± 40 nM; with T98, 1950 ± 40 nM; in the series on U87MG, 1690 ± 40 nM. In addition, in the series “Conductivity measurement”, the “Conductivity (ΛM) 10% aq DMSO” value worked out at 74 S cm2 mol-1. Besides, the “Conductivity (ΛM) DMSO” value in “Conductivity measurement” came out at 72 S cm2 mol-1.

Consider “[(η^6-p-Cymene)Ru^II(κ^2-N,N-4,4′ dimethylbipyridine)(PTA)]·2PF6 [4g]”, for which the IC50 worked out at 1690 ± 20 nM with LN229, 1700 ± 30 nM with T98 and 1700 ± 30 nM in the series with U87MG. Also, the “Conductivity (ΛM) 10% aq DMSO” value in “Conductivity measurement” stood at 74 S cm2 mol-1. Further, the “Conductivity (ΛM) DMSO” value in “Conductivity measurement” is listed as 72 S cm2 mol-1.

For “cis-[Pt(NH3)2Cl2] [Cisplatin, reference compound]”, the half-maximal inhibitory concentration (IC50) with LN229 came to 1400 ± 50 nM; in the series with T98 it was 1360 ± 50 nM; in the series with U87MG it was 1370 ± 40 nM.

For `C1N2CN3CN1CP(C2)C3.Cc1ccc(C(C)C)cc1.F[P-](F)(F)(F)(F)F.F[P-](F)(F)(F)(F)F.[Ru+2].c1cnc2c(c1)ccc1cccnc12` [4b, [(η^6-p-Cymene)Ru^II(κ^2-N,N-phenanthroline)(PTA)]·2PF6], the IC50 with LN229 was determined as 2190 ± 160 nM; in the series with T98 it was 1910 ± 80 nM; with U87MG, 1910 ± 80 nM. For the same compound, the “Conductivity (ΛM) 10% aq DMSO” value in the series “Conductivity measurement” is recorded as 78 S cm2 mol-1. The “Conductivity (ΛM) DMSO” value in the series “Conductivity measurement” was determined as 74 S cm2 mol-1.
